Patent publication US20230293451A1, “STIMULATION OF HAIR GROWTH” (The General Hospital Corporation, priority 2020, published 2023)
“Also recorded” adds a separate entry of the source.

Legend:
[1] = system: mouse skin with hair follicles arrested in telogen; assay: Topical administration of novel compounds to pre-sensitized mice (Example 2); assay type: in vivo, C57BL/6 mice; details: pre-sensitized with 2% on chest; 2% topical on days 3, 5 and 7; images day 17
Excerpt: In order to compare the effect of SABDE, CF3-SABDE or CC1-SABDE (see FIG. 2a) on hair growth, 3 female C57BL/6 mice, 8 weeks old, were pre-sensitized with 2% of each compound on the chest 4 days before the first treatment and both flanks were shaved (Day 0). On days 3, 5, and 7, 2% of SABDE, CF3-SABDE or CC1-SABDE was topically administered to the shaved left flank of one mouse each using a cotton-tipped applicator. Images were taken on day 17 in order to visualize hair growth and inflammation (see FIGS. 2B and 2C).

[2] = system: mouse skin with hair follicles arrested in telogen; assay: Comparison of 100 mM SADBE and CF3-SADBE topical treatment (Examples 3 and 5); assay type: in vivo, C57BL/6 mice; details: 100 mM topical; for visible anagen: by day 10; for anagen induction / visible inflammation: by day 14; for hair growth on the treated flank: by day 17
Excerpt: (§1) To measure the effect of SABDE and DPCP (see FIG. 1a) on hair growth, 6 female C57BL/6 mice, 8 weeks old, were shaved on both flanks 4 days before topical administration of the compounds (Day −4). During this period, the mice were visually monitored to confirm absence of hair growth and to confirm the entire shaved area is arrested in the telogen phase as expected from 8 weeks old mice. On the day of administration (day 0), 2% SABDE or 2% DCPC was topically administered to the shaved left flank of 3 mice each using a cotton-tipped applicator (see FIG. 1B). Images were taken on day 9 and day 16 in order to visualize hair growth and inflammation (see FIG. 1c). Skin pigmentation intensity was quantified by ImageJ. The anagen induction index is calculated as the change in skin pigmentation intensity (a marker of anagen) on the treated side relative to (i.e., as a percent of) the untreated side (see FIG. 1d).
(§2) The anagen induction index can be determined by any methods known in the art, including, for example, histological methods (e.g., H&E, other stains, or without stains) and/or other visual morphology methods. (e.g., methods to measure the biological parameters of hair growth. This value is then normalized to the specific experiment (individual mice) and shown as relative anagen induction by skin pigmentation intensity (a marker of anagen) on the treated side as a percent of the baseline untreated side. Analysis of the anagen (or other phases) can be performed by any method known in the art, including, e.g., a tissue biopsy and/or morphological analysis.
(§3) Inflammation can be measured by known methods such as histological grading, visual identification, and quantification of lesions. The number, size, and extent of the cutaneous lesions present (e.g., see blue * in FIG. 3a) can be visualized and quantified using any known method in the art, including, for example, histological methods (e.g., H&E, other stains, or without stains) and/or other visual morphology methods.
The effects of a topical treatment dose of SADBE or CF3-SADBE were measured using the methods describe in Example 1. In FIG. 3, the topical treatment dose used was 50 uL of 100 mM SADBE or CF3-SADBE.
The effects on anagen induction and inflammation of topical treatment with CF3-SADBE at 100 mM were measured and visualized using the methods described in Example 1.

[3] = system: resting telogen hair follicles; assay: Induction of anagen phase by CF3-SADBE, H&E staining of treated skin (Example 4); assay type: in vivo, mouse; details: 100 uL of 100 mM on left flank; right flank untreated
Excerpt: as §1
The effects of a topical treatment dose of CF3-SADBE was measured and visualized using the methods described in Example 1. The gross appearance of the mouse treated with CF3-SADBE was imaged (see FIG. 4a). CF3-SADBE was administered on the left flank at a dose of 100 uL of 100 mM CF3-SADBE (see FIG. 4B). The right flank was left untreated (see FIG. 4C).

[4] = system: hair growth in shaved mice; assay: Hair growth in animal models after topical delivery of hapten derivatives (general statements); assay type: in vivo
[5] = system: mouse skin with hair follicles arrested in telogen; assay: Topical administration of SADBE and DPCP to shaved flank of mice (Example 1); assay type: in vivo, C57BL/6 mice; details: for induction of anagen and hair growth: 2% topical, single administration day 0 to shaved left flank, images day 9 and day 16; for hair growth in a mammal without an autoimmune disease: mouse, in vivo
Excerpt: as §1, §2, §3

SMILES	anagen and hair growth [1]	inflammation [1]	visible anagen [2]	anagen induction [2]	visible inflammation [2]	hair growth on the treated flank [2]	hair follicle phase in treated skin (H&E staining) [3]	efficacy as measured by time of anagen induction [4]	inflammation relative to known treatments [4]	hair growth promoting activity ([4]; animal models, after prior shaving)	induction of anagen and hair growth [5]	hair growth in a mammal without an autoimmune disease [5]
O=c1c(OCCCCCl)c(OCCCCCl)c1=O [CC1-SABDE]	neither produced inflammation nor anagen and hair growth	neither produced inflammation nor anagen and hair growth										
O=c1c(OCCCC(F)(F)F)c(OCCCC(F)(F)F)c1=O [CF3-SADBE, squaric acid di(trifluromethyl)propyl ester]	induce anagen and hair growth at least as efficiently as SADBE	less inflammation	induced visible anagen	induces anagen	much less visible inflammation	Robust hair growth	hair follicles in anagen	earlier induction of anagen	less inflammation than known treatments; also recorded: somewhat diminished inflammation	accelerated hair growth relative to known treatments		
CCCCOc1c(OCCCC)c(=O)c1=O [SADBE]		inflammation in the SADBE treated flank	does not; also recorded: did not induce visible anagen	induces anagen	substantial inflammation; also recorded: more visible inflammation	Robust hair growth					induction of anagen and hair growth	increased (e.g., promoted) hair growth
O=c1c(-c2ccccc2)c1-c1ccccc1 [DPCP, diphenylcyclopropenone]											induction of anagen and hair growth	increased hair growth
